Assay results taken from paper PMC10590383, “Repurposing conformational changes in ANL superfamily enzymes to rapidly generate biosensors for organic and amino acids” (Nature Communications, 2023).

Assay: Dose–response curve of purified […]s with isoleucine
Type: biochemical
Set-up: key to Dose-response, AVE of Repeat 1-3 (Fig. 3 i): normalized ΔF/F0 (fluorescence change over baseline)
Details: for fluorescence response of GECFINDER, AVE of 3 repeats: Supplementary Fig. 3 g
Procedure: Fig. 3 Dose–response curves and fluorescence spectrums of […]s. a, c, e, g, i, k Dose–response curve of purified […]s with increasing concentrations of ligand in 100 mM Tris-HCl buffer (pH=7.5). The normalized ΔF/F0 value increased after ligand binding. All data shown are mean ± S.D. (n = 3 biologically independent samples). b, d, f, h, j, l The fluorescence spectra of […]s changed as the ligand concentration increased. All data shown are mean ± S.D. (n = 3 biologically independent samples). Source data are provided as a Source data file.
The study conducted dose–response curve, substrate specificity, and fluorescent spectrum analyses in 100-mM Tris buffer (pH = 7.5), while pH stability experiments were performed in 100-mM Tris buffer at three different pH values (6.5, 7.5, and 8.5) at room temperature. […] protein at a concentration of 0.75 μM, various small molecule concentrations, 1 mM ATP, and 2.5 mM MgCl2 were used in the experiments. Fluorescent signals were detected using a Microplate Reader (Synergy H4, Bio Tek) at an excitation/emission wavelength of 460 nm/510 nm or 480 nm/510 nm. The dose-response curve was determined immediately after the addition of the analyte. The total duration of the measurement was 15 min, with readings taken at one-minute intervals. The dose-response curve was plotted using the fluorescence values obtained after achieving stability in the fluorescence signal. The dose-response curves were fitted using the logistic model LOGISTIC5 available in Origin 2021, which could provide a more adequate fit to asymmetric dose-response data[62],[63]. Excitation spectra were scanned from 300 to 540 nm with a step size of 5 nm, and the emission wavelength was set to 560 nm. Emission spectra were scanned from 470 to 700 nm with a step size of 5 nm, and the excitation wavelength was set to 450 nm. The thermal stability of […] was analyzed using the UNcle multifunctional protein stability analysis system. Measurements were performed in 20 mM MOPS buffer with 2 mM DTT at a sample concentration of 1 mg/mL. Absolute fluorescence quantum yields were measured using an absolute photoluminescence quantum yield spectrometer (FS5, Edinburgh). […]
Ile (μM) Wave le ngth( nm ) Ile (μM) Wave le ngth( nm )
Supplementary Fig. 2 Dose–response curves and fl uorescen ce spectr ums of GEC FINDERs. a and c, Dose– re spons e curves of puri fi ed GECF INDE R-P he1 and 2 with increas ing concen tra tions of phenylalanine (1 nM to 100 μM). The norm alized ΔF/F 0 value increas ed aft er phenylalanine binding (4 60 nm excita tion) . b and d, The fl uore scen ce spect ra of GECF IN DER-P he1 and 2 changed as the phe nylalanine concen tra tion incre ased fro m 1 nM to 100 μM. e and g, Dose–re spon se curv es of puri fied GECF IN DER-Il e1 and 2 with increas ing concen tra tio ns of isoleucine (50 nM to 10 mM). The norm alized ΔF/F 0 value increas ed aft er isoleucine binding (4 80 nm excita tion) . f and h, The fl uore scen ce spect ra of GECF INDE R-Il e1 and 2 change d as the isoleucine concen tration increas ed fro m 0.5 μM to 10 mM. i, Dose–re spon se curv e of puri fi ed GECF INDE R-H is1 with increas ing concen tra tio ns of histid ine (5 nM to 1 mM). The Norm alized ΔF/F 0 increas ed aft er histidine binding (480 nm excita tion). j, The fl uore scen ce spect ra of GECFIN DER-H is1 changed as the histid ine concen tra tion increas ed fro m 5 nM to 1 mM. k, Diffe re nce in fl uore scen ce intensity of GECF INDE R-b enzoic aci d in the pre sence of 10 µM benzoic aci d compare d to the cont ro l (0 µM benzoic aci d). […] (n=3 biological ly independent samples). *p ≤ 0.05, ***p ≤ 0.001, ****p ≤ 0.0001, and n.s. indicat ed no signifi can t diffe re nce (S tude nt’s two-t aile d t-t est). Source data are provi ded as a Source Data file . […]

CC[C@H](C)[C@H](N)C(=O)O [Ile]
Dose-response, AVE of Repeat 1-3 (Fig. 3 i) (Ile 0.05 μM): 0
Dose-response, AVE of Repeat 1-3 (Fig. 3 i) (Ile 0.1 μM): 0.02113
Dose-response, AVE of Repeat 1-3 (Fig. 3 i) (Ile 0.5 μM): 0.03402
Dose-response, AVE of Repeat 1-3 (Fig. 3 i) (Ile 5 μM): 0.05594
Dose-response, AVE of Repeat 1-3 (Fig. 3 i) (Ile 50 μM): 0.1628
Dose-response, AVE of Repeat 1-3 (Fig. 3 i) (Ile 100 μM): 0.2049
Dose-response, AVE of Repeat 1-3 (Fig. 3 i) (Ile 250 μM): 0.2905
Dose-response, AVE of Repeat 1-3 (Fig. 3 i) (Ile 500 μM): 0.3097
Dose-response, AVE of Repeat 1-3 (Fig. 3 i) (Ile 1000 μM): 0.3698
Dose-response, AVE of Repeat 1-3 (Fig. 3 i) (Ile 5000 μM): 0.4681
Dose-response, AVE of Repeat 1-3 (Fig. 3 i) (Ile 7500 μM): 0.4489
Dose-response, AVE of Repeat 1-3 (Fig. 3 i) (Ile 10000 μM): 0.4411
fluorescence response of GECFINDER, AVE of 3 repeats (Ile 0.05 μM): -6.245e-17
fluorescence response of GECFINDER, AVE of 3 repeats (Ile 0.1 μM): 0.01149
fluorescence response of GECFINDER, AVE of 3 repeats (Ile 0.5 μM): 0.02425
fluorescence response of GECFINDER, AVE of 3 repeats (Ile 5 μM): 0.01608
fluorescence response of GECFINDER, AVE of 3 repeats (Ile 50 μM): 0.05759
fluorescence response of GECFINDER, AVE of 3 repeats (Ile 100 μM): 0.08825
fluorescence response of GECFINDER, AVE of 3 repeats (Ile 250 μM): 0.1283
fluorescence response of GECFINDER, AVE of 3 repeats (Ile 500 μM): 0.1586
fluorescence response of GECFINDER, AVE of 3 repeats (Ile 1000 μM): 0.1861
fluorescence response of GECFINDER, AVE of 3 repeats (Ile 5000 μM): 0.2413
fluorescence response of GECFINDER, AVE of 3 repeats (Ile 7500 μM): 0.2222
fluorescence response of GECFINDER, AVE of 3 repeats (Ile 10000 μM): 0.2208
